Values of other authors, collected in patent US20160015722A1, “TREATMENT OF ENDOMETRIOSIS” (priority 2014, published 2016).

Test system: FSH (Follicle Stimulating Hormone) and LH (Leutinizing Hormone) release from the pituitary
Details: for FSH and LH release from the pituitary gland: previous hormonal treatments of endometriosis

| Molecule | FSH and LH release from the pituitary gland | FSH and LH release from the pituitary (nandrolone used alone) |
| --- | --- | --- |
| C#C[C@]1(O)CC[C@H]2[C@@H]3CCC4=Cc5oncc5C[C@]4(C)[C@H]3CC[C@@]21C [danazol] | suppress |  |
| luprolide acetate | suppress |  |
| C[C@]12CC[C@H]3[C@@H](CCC4=CC(=O)CC[C@@H]43)[C@@H]1CC[C@@H]2O [Nandrolone, nandrolone] |  | suppresses |
